Test results: patent publication US20250051383A1, “NOVEL FEAZD, NIAZD, AND CUAZD COMPLEXES INCORPORATING 1-(2-HYDROXYPHENYLAZO)-2-NAPHTHOL (H2AZD) FOR BIOLOGICAL APPLICATIONS” (KING FAISAL UNIVERSITY, priority 2023, published 2025)
Values after ≈ are worked out from the molar mass of the structure shown. Where two headings read alike, the source gives them in different places.

Tests used:
Assay type in all cases: cell-based
Escherichia coli (−ve) [1] = test: Disc diffusion, inhibition zone and activity index vs chloramphenicol; set-up: activity index (%): concentration or dose not given beside the values; conditions: for inhibition zone (IZ): disc diffusion; for activity index (%): IZ of test compound/IZ of standard chloramphenicol ×100
Protocol: (§1) The in vitro antibacterial and antifungal activity of the components was assessed using a series of bacteria (Pseudomonas aeruginosa (−ve), Staphylococcus aureus (+ve), Escherichia coli (−ve), and Bacillus cereus (+ve)) and fungi (Trichophyton rubrum, Aspergillus flavus, and Candida albicans). The disc diffusion method was used to perform the in vitro antimicrobial activity tests. The biological activity of each compound was determined by examining its impact on the size of the inhibition zone, which is a measure of the compound's effectiveness in inhibiting the growth of microorganisms. The inhibitory zone (IZ) surrounding the disc was measured in millimeters. The activity of the current compounds was compared to that of the standard antibiotic chloramphenicol, and the % Activity Index (%=IZ of test compound/IZ of Standard)×100, was evaluated.

[2] = test system: Pseudomonas aeruginosa (−ve); test: as above; set-up: activity index (%): concentration or dose not given beside the values; conditions: for inhibition zone (IZ): disc diffusion; for activity index (%): IZ of test compound/IZ of standard chloramphenicol ×100
Protocol: as §1

Aspergillus flavus [3] = test: as above; conditions: for activity index (%): IZ of test compound/IZ of standard ×100; for inhibition zone (IZ): disc diffusion
Protocol: as §1

Bacillus cereus (+ve) [4] = test: as above; conditions: for activity index (%): IZ of test compound/IZ of standard chloramphenicol ×100; for inhibition zone (IZ): disc diffusion
Protocol: as §1

Candida albicans [5] = test: as above; conditions: for activity index (%): IZ of test compound/IZ of standard ×100; for inhibition zone (IZ): disc diffusion
Protocol: as §1

[6] = test system: Staphylococcus aureus (+ve); test: as above; conditions: for activity index (%): IZ of test compound/IZ of standard chloramphenicol ×100; for inhibition zone (IZ): disc diffusion
Protocol: as §1

Trichophyton rubrum [7] = test: as above; conditions: for activity index (%): IZ of test compound/IZ of standard ×100; for inhibition zone (IZ): disc diffusion
Protocol: as §1

Aspergillus flavus [8] = test: MIC by repeated dilution
From the text: (§2) The MIC, or the lowest concentration of a drug that can inhibit the development of bacteria or fungi, is often used as a starting point in larger preclinical studies of new antibacterial medications. The MIC value was obtained by repeatedly diluting a sample until the desired concentration was reached.

Bacillus cereus (+ve) [9] = test: MIC by repeated dilution
From the text: as §2

Candida albicans [10] = test: MIC by repeated dilution
From the text: as §2

Escherichia coli (−ve) [11] = test: MIC by repeated dilution
From the text: as §2

[12] = test system: Pseudomonas aeruginosa (−ve); test: MIC by repeated dilution
From the text: as §2

[13] = test system: Staphylococcus aureus (+ve); test: MIC by repeated dilution
From the text: as §2

Trichophyton rubrum [14] = test: MIC by repeated dilution
From the text: as §2

bacteria or fungi = test: MIC by repeated dilution, summary over the tested bacteria and fungi
From the text: as §2

SMILES | inhibition zone (IZ) (Escherichia coli (−ve) [1]) | inhibition zone (IZ) [2] | activity index (%) (Aspergillus flavus [3]) | inhibition zone (IZ) (Aspergillus flavus [3]) | activity index (%) (Bacillus cereus (+ve) [4]) | inhibition zone (IZ) (Bacillus cereus (+ve) [4]) | activity index (%) (Candida albicans [5]) | inhibition zone (IZ) (Candida albicans [5]) | activity index (%) [6] | inhibition zone (IZ) [6] | activity index (%) (Trichophyton rubrum [7]) | inhibition zone (IZ) (Trichophyton rubrum [7]) | MIC (Aspergillus flavus [8]) | MIC (Bacillus cereus (+ve) [9]) | MIC (Candida albicans [10]) | MIC (Escherichia coli (−ve) [11]) | MIC [12] | MIC [13] | MIC (Trichophyton rubrum [14]) | activity index (%) (Escherichia coli (−ve) [1]) | other results
O.O.O.c1ccc2c(c1)N=Nc1c(ccc3ccccc13)[O][Cu][O]2 [CuAZD] | 13 mm | 13 mm | 63.16% | 12 mm | 72.22% | 13 mm | 61.90% | 13 mm | 77.78% | 14 mm | 59.09% | 13 mm | 6.25 ppm | 6.25 ppm | 6.25 ppm | 3.125 ppm | 6.25 ppm | 6.25 ppm | 6.25 ppm | – | –
O.O.[Cl][Fe]1[O]c2ccccc2N=Nc2c(ccc3ccccc23)[O]1 [FeAZD] | 12 mm | 11 mm | 52.63% | 10 mm | 66.67% | 12 mm | 57.14% | 12 mm | 72.22% | 13 mm | 50.00% | 11 mm | 6.25 ppm | 6.25 ppm | 6.25 ppm | 6.25 ppm | 12.5 ppm | 6.25 ppm | 6.25 ppm | 60.00% | activity index (%) [2]: 61.11%
Oc1ccccc1N=Nc1c(O)ccc2ccccc12 [H2AZD, 1-(2-hydroxyphenylazo)-2-naphthol] | 8 mm | 8 mm | 42.11% | 8 mm | 44.44% | 8 mm | 38.10% | 8 mm | 50.00% | 9 mm | 31.82% | 7 mm | – | – | – | – | – | – | – | 40.00% | activity index (%) [2]: 44.44%; MIC (Aspergillus flavus [8]; read-out: MIC): 50 µg/mL (≈ 189 µM); MIC (Bacillus cereus (+ve) [9]; read-out: MIC): 50 µg/mL (≈ 189 µM); MIC (Candida albicans [10]; read-out: MIC): 50 µg/mL (≈ 189 µM); MIC (Escherichia coli (−ve) [11]; read-out: MIC): 50 µg/mL (≈ 189 µM); MIC ([12]; read-out: MIC): 50 µg/mL (≈ 189 µM); MIC ([13]; read-out: MIC): 50 µg/mL (≈ 189 µM); MIC (Trichophyton rubrum [14]; read-out: MIC): 50 µg/mL (≈ 189 µM); MIC (bacteria or fungi): ~50 µg/mL (≈ 189 µM)
O.c1ccc2c(c1)N=Nc1c(ccc3ccccc13)[O][Ni][O]2 [NiAZD] | 11 mm | 11 mm | 52.63% | 10 mm | 61.11% | 11 mm | 52.38% | 11 mm | 72.22% | 13 mm | 45.45% | 10 mm | 6.25 ppm | 6.25 ppm | 6.25 ppm | 6.25 ppm | 12.5 ppm | 6.25 ppm | 6.25 ppm | 55.00% | activity index (%) [2]: 61.11%
